Experimental data as given in US7122337B2, “Method for determining calciotropic activity of a preparation of Padina pavonic algae” (Texinfine SA, priority 2001, dated 2006).

Legend:
[1] = system: Osteoblasts; test: Fixing of calcium by osteoblasts (Example I); assay type: cell-based
Description: (§1) More precisely, the process according to the invention consists of preparing a suspension of a human or animal osseous cell line, by adjusting the cellular density determined by turbidimetry or by calculating from a reference value, leaving to incubate for one to three days at 37° C. in the presence of carbon dioxide and of a complete culture medium (CCM), adding to some wells an agent inhibiting the fixing of calcium or a calciotropic hormone, and some extract to be titrated, eliminating the supernatants from the culture, rinsing out the wells with a rinsing medium without calcium or magnesium (P.B.S. for example) in such a way as to eliminate the non-fixed calcium from the culture medium, eliminating the supernatant fractions, and adjusting the volume of the dispersion with a fixed volume of mineral acid such as hydrochloric acid, sulphuric acid, phosphoric acid or perchloric acid or with any other product capable of destroying the extracellular matrix built up by the cells being cultured. […] NT-690.005.
The extracts or powders of the algae Padina pavonica have the effect of stimulating biological activity (synthesis of proteins and glycoaminoglycanes) but also act to restore physiological functions such as the fixing of calcium by osteogenic cells. For this, the fixed calcium is dosed with a fixed cell line, such as for example the cell line UMR 106 or the line G 292, in the presence or not of deleterious agents such as inhibitors of the calcic canals and pro-inflammatory agents such as IL 1. Normal osteoblasts give good results, but their availability presents a problem. The preparation to be analysed is tested in parallel on the same cell line, in the presence or not of these same deleterious agents. The quantity of fixed calcium in relation to that obtained with the calciotropic agent and with those obtained in the presence of agents inhibiting the fixing of calcium are compared.
(§2) The material to be tested is dosed on a cell culture. An analysis is carried out of the calcium fixed by the osseous cells. To do this, the calcium fixed by an osteoblastic cell line is dosed. In a non-limiting way, UMR 106 and G292, in the presence or not of deleterious agents such as the Inh-Ca and the IL-1 may be cited. The preparation to be analysed will also itself be tested, on the same cell line in the presence or not of agents such as Inh-Ca and IL-1.
(§3) For each trial of solution to be titrated, 5 μl of solution of Padina extract is added. It is then left to incubate for the length of time necessary to carry out the trial, normally between 24 and 72 hours, and preferably 48 hours. […]

[2] = system: human cell line G292; test: Fixing of calcium by the osteoblast cell line G292; assay type: cell-based; design: Fixed calcium, Average: unit not given here; details: for Fixing the calcium (fixed calcium): G292, Example I, controls = 1,000
Description: as §1, §2
In these same conditions, calcium fixed by the same cell line in the presence of estradiol is dosed and a calibration scale is produced, expressed in weight of estradiol This calibration scale ranges from 10^−3 to 10^−10 mol of estradiol or more frequently between 10^−7 and 10^−9 mol of estradiol. In this way, it is possible to establish a correlation between the activity of the extract of Padina and an active quantity of estradiol. We should stress that this comparison is made between the activity of estradiol directly on the cell culture with the active extract of Padina in the presence of deleterious agents such as an Inh-Ca or IL-1. So it is not a true weight comparison and it is proposed that the result should be expressed in Units of Activity (UA). A unit of activity is defined as the quantity of extract capable of increasing by 50% the quantity of calcium fixed by 400,000 cells cultivated for 48 hours in the presence of 1 ng of interleukin 1 per 1 ml well. The IL-1 can be replaced by another agent inhibiting the fixing of calcium at an equi-active dose.
The extracts of Padina have been described, in particular in the European patent application EP 0.655.250. The algae is then depleted after drying, by a hydrocarbonated solvent such as cyclohexane or acetone, the vegetable matter is separated, and the extracted product is filtered then evaporated until dry. A quantity of dry extract weighed precisely is then dissolved in ethanol. Determining its activity is the object of the present invention. In concrete terms, the process according to the invention consists of preparing a suspension of culture of the human cell line G292 (ECAC no. 901-110522), adjusting the cell density to 400,000 cells per ml of complete culture medium (CCM), supplemented by 10% of fetal calf serum. The cell suspension is distributed at the rate of 1 ml per well on plates of 24 wells. It is left to incubate overnight in an atmosphere of CO2 at 37°. The supernatants are separated then dilution is carried out by a new addition of CCM. An aliquot fraction of IL-1 is prepared and 5 μl of interleukin IL1 solution is added, namely 1 ng per well in the wells for the cells which receive only one inhibiting treatment per IL-1.
as §3

[3] = agent in the presence of IL-1, controls = 1,000
[4] = calcic inhibitor alone, 10 μg, control 1.194

C=C1CC[C@H](O)C/C1=C/C=C1\CCC[C@]2(C)[C@@H]([C@H](C)CCCC(C)C)CC[C@@H]12 [D3, Vitamin D3]
Fixing the calcium (fixed calcium) ([1]; agent alone, controls = 1,000): 1,215 | Fixing the calcium (fixed calcium) [1, 3]: 0,125 | Fixing the calcium (fixed calcium) ([2]; agent alone): 1,540 | Fixing the calcium (fixed calcium) ([2]; agent in the presence of IL-1): 0,070

C[C@]12CC[C@@H]3c4ccc(O)cc4CC[C@H]3[C@@H]1CC[C@@H]2O [Est, Estradiol]
Fixing the calcium (fixed calcium) ([1]; agent alone, controls = 1,000): 1,843 | Fixing the calcium (fixed calcium) [1, 3]: 0,200 | Fixed calcium, Average ([2]; Estradiol 10^−7 alone, control 1.194): 1.151 | Fixed calcium, Average ([2]; Estradiol 10^−8 alone, control 1.194): 1.115 | Fixed calcium, Average ([2]; Estradiol 10^−9 alone, control 1.194): 0.706 | Fixed calcium, Average ([2]; Estradiol + Cinchonine, control 1.194, Cinchonine 0.059): 0.357 | Fixed calcium, Average ([2]; Estradiol + IL-1, control 1.194, IL-1 0.315): 0.357 | Fixed calcium, Average ([2]; Estradiol + Verapamil, control 1.194, Verap 0.383): 0.373 | Fixing the calcium (fixed calcium) ([2]; agent alone): 2,648 | Fixing the calcium (fixed calcium) ([2]; agent in the presence of IL-1): 0,070

COc1ccc(CCN(C)CCCC(C#N)(c2ccc(OC)c(OC)c2)C(C)C)cc1OC (stereo not shown) [Verap, Verapamil]
Fixed calcium, Average [2, 4]: 0.383

C=C[C@H]1C[N@@]2CC[C@H]1C[C@@H]2[C@@H](O)c1ccnc2ccccc12 [Cinchonine]
Fixed calcium, Average [2, 4]: 0.059
